Results reported in the Kinase Knowledgebase extract (Sharma et al. 2016).

Tests used:
[1] = target: MAPK14 (human) (UniProt Q16539); test: Inhibition of IL-1 Production in Whole Blood
[2] = target: MAPK14 (human) (UniProt Q16539); test: Inhibition of IL-6 Production in Whole Blood
[3] = target: MAPK14 (human) (UniProt Q16539); test: Inhibition of TNF Production in Whole Blood
[4] = target: MAPK14 (human) (UniProt Q16539); test: Inhibition of TNF-alpha Production in LPS-Stimulated PBMCs; conditions: pbmc
[5] = target: MAPK14 (human) (UniProt Q16539); test: Inhibition of IL-1 Production in LPS-Stimulated PBMCs; conditions: pbmc
[6] = target: MAPK14 (human) (UniProt Q16539); test: Inhibition of MAPK14 Kinase Activity

Sequence of MAPK14 (human) (Q16539 whole entry, looked up): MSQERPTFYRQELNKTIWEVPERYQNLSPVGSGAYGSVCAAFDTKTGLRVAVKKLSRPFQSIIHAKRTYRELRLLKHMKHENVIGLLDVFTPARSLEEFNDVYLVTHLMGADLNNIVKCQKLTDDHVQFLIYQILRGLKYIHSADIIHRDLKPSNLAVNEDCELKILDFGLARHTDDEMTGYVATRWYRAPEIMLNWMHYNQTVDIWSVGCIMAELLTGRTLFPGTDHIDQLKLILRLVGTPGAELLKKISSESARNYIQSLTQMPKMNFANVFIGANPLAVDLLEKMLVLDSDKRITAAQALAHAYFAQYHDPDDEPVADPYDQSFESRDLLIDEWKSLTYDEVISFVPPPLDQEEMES

Ki [6] [nM]	SMILES	IC50 [1] [nM]	IC50 [2] [nM]	IC50 [3] [nM]	IC50 [4] [nM]	IC50 [5] [nM]
	NC(=O)N(c1cccc(-c2ccc(F)cc2)n1)c1c(F)cccc1F	> 500	> 500	> 500		
	Cc1ccccc1-c1cccc(N(C(N)=O)c2c(F)cccc2F)n1	> 500	250 to 500	> 500		
	NC(=O)N(c1cccc(-c2ccccc2)n1)c1c(Cl)cccc1Cl	> 500	> 500	> 500		
	COc1ccc(-c2c(=O)ncn3nc(Sc4ccc(F)cc4)ccc23)c(Cl)c1OC	> 500	> 500	> 500	> 500	> 500
	Cc1c(Sc2ccccc2)nn2cnc(=O)c(-c3c(Cl)cccc3Cl)c2c1C				> 500	> 500
	NC(=O)C(c1cccc(-c2ccccc2CN2CCCC2)n1)c1c(Cl)cccc1Cl (stereo not drawn)				> 500	100 to 500
	NC(=O)C(c1cccc(-c2ccccc2)n1)c1c(Cl)cccc1Cl (stereo not drawn)	> 500	> 500	> 500		
	CNCc1ccccc1-c1cccc(C(C(N)=O)c2c(Cl)cccc2Cl)n1 (stereo not drawn)	> 500	> 500	> 500	> 500	> 500
	NC(=O)C(c1ccc(C(O)c2ccccc2)cn1)c1c(Cl)cccc1Cl (stereo not drawn)					100 to 500
	COc1ccc(-c2cccc(C(C(N)=O)c3c(Cl)cccc3Cl)n2)cc1 (stereo not drawn)					> 500
	CC(=O)Nc1ccc(C2=C3C=CC(Sc4ccc(F)cc4)=NN3CNC2=O)c(Cl)c1	> 500	> 500	> 500		
	NC(=O)C(c1cccc(-c2ccccc2CN2CCNCC2)n1)c1c(Cl)cccc1Cl (stereo not drawn)	> 500	> 500	> 500	> 500	> 500
	NC(=O)C(c1cccc(-c2ccccc2)n1)c1cc(Cl)ccc1Cl (stereo not drawn)	> 500	> 500	> 500	> 500	100 to 500
	O=c1ncn2nc(Sc3ccccc3)ccc2c1-c1ccccc1Cl				> 500	> 500
	O=c1ncn2nc(Sc3ccccc3)ccc2c1-c1c(F)cccc1F				> 500	> 500
	COC(=O)CCc1ccc(SC2=NN3CNC(=O)C(c4c(Cl)cccc4Cl)=C3C=C2C)cc1	> 500	> 500	> 500	> 500	100 to 500
	CC(C)c1ccccc1Sc1ccc2c(-c3c(Cl)cccc3Cl)c(=O)ncn2n1				> 500	> 500
	Cc1ccc(Sc2ccc3c(-c4c(Cl)cccc4Cl)c(=O)ncn3n2)cc1C				> 500	> 500

Ki [6] [nM]	SMILES	IC50 [1] [nM]	IC50 [2] [nM]	IC50 [3] [nM]	IC50 [4] [nM]	IC50 [5] [nM]
> 20000	O=c1ncn2nc(Sc3ccccc3)ccc2c1-c1ccccc1					
	Cc1ccccc1-c1cccc(N(C(N)=O)c2c(Cl)cccc2Cl)n1	> 500	> 500	> 500		
	Nc1cc(C(F)(F)F)ccc1SC1=NN2CNC(=O)C(c3c(Cl)cccc3Cl)=C2C=C1				> 500	100 to 500
	Cc1cccc(-c2cccc(C(C(N)=O)c3c(Cl)cccc3Cl)n2)c1 (stereo not drawn)	> 500	> 500	> 500	> 500	
	O=C1NCN2N=C(Sc3ccc(F)cc3)C=CC2=C1c1cc2c(cc1Cl)OCO2	250 to 500	250 to 500	> 500		
	NC(=O)C(c1cccc(-c2ccccc2CNCCO)n1)c1c(Cl)cccc1Cl (stereo not drawn)				> 500	> 500
	Cc1cccc(Sc2ccc3c(-c4c(Cl)cccc4Cl)c(=O)ncn3n2)c1				100 to 500	100 to 500
	NC(=O)C(c1cccc(-c2cccc3ccccc23)n1)c1c(Cl)cccc1Cl (stereo not drawn)	> 500	> 500	> 500		
	Cc1ccccc1SC1=NN2CNC(=O)C(c3c(Cl)cccc3Cl)=C2C=C1	> 500	250 to 500			
	Cc1ccccc1-c1c(=O)ncn2nc(Sc3ccccc3)ccc12				> 500	> 500
	O=C1NCN2N=C(Sc3ccccc3CO)C=CC2=C1c1c(Cl)cccc1Cl	250 to 500	< 250	< 250		
	Cc1cc(F)ccc1-c1cccc(N(C(N)=O)c2c(F)cccc2F)n1	250 to 500	250 to 500	250 to 500		
	O=c1ncn2nc(Sc3ccccn3)ccc2c1-c1c(Cl)cccc1Cl	> 500			> 500	
	Cc1cc(F)ccc1-c1cccc(N(C(N)=O)c2c(Cl)cccc2Cl)n1	> 500	250 to 500	> 500		
	COc1ccc(C2=C3C=CC(Sc4ccc(F)cc4)=NN3CNC2=O)c(Cl)c1OC	> 500	> 500	> 500		
	Nc1cc(F)ccc1SC1=NN2CNC(=O)C(c3c(Cl)cccc3Cl)=C2C=C1	250 to 500	< 250	250 to 500		
	O=C1NCN2N=C(Sc3ccc(F)cc3Cl)C=CC2=C1c1cc2c(cc1Cl)OCO2	> 500	250 to 500	> 500		
